Data from patent US20070118211A1, “Method for preparing drug eluting medical devices and devices obtained therefrom” (priority 2003, published 2007).

Assay: elution of the drug from coated stents in physiological solution (UV absorbance)
Assay type: physicochemical
Conditions: stent with allylamine polymer deposited by cold plasma compared with stent with polymer according to the state of the art (polybutadiene layers); 1 cc physiological solution; absorbance at 261 nm; FIG. 1
Procedure: Next, the stents were immersed in test tubes containing 1 cc of physiological solution and the rate of elution of the drug was measured by acquiring the visible UV spectrum using a Unicam 8700 spectrophotometer and reading off the absorbance at 261 nm. The correlation between absorbance and concentration was established by measuring the absorbance of solutions of known concentration (calibration curve). The drug elution measurements were carried out at fixed time intervals and the physiological solution was changed at each measurement.
10 mg of dexamethasone were dissolved in 1 cc of ethanol and applied as described previously. The elution curves were again measured as described in example 1 and the absorbance at 264.4 nm was read off.

SMILES: CS(=O)(=O)O.Cc1ccc(NC(=O)c2ccc(CN3CCN(C)CC3)cc2)cc1Nc1nccc(-c2cccnc2)n1 [hydrophilic drug, 4-[(4-methyl-1-piperazinyl)methyl]-N-[4-methyl-3-[[4-(3-pyridinyl)-2-pyrimidinyl]amino]-phenyl]benzamide methanesulphonate]
- elution of the hydrophilic drug: significantly delays the elution
